Laboratory results taken from PubChem BioAssay AID342 (DTP/NCI, 2004).
Where “and” joins values, the source holds several entries; their conditions need not be identical. Equal entries are not always repeated.

Tested on: Swiss mice, Sarcoma 180 sc, mean tumor weight T/C
Assay: NCI In Vivo Anticancer Drug Screen. Data for tumor model Sarcoma 180 (subcutaneous) in Swiss mice
Conditions: endpoint: mean tumor weight, higher = larger tumour
Summary of the method: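 Tumor-bearing mice, transplantable tumor; readout survival or tumor size; result = T/C, treated vs vehicle control.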

[1] = dose: 7.0 mg/kg/injection, schedule: Q01DX007 (ip), vehicle: carboxymethylcellulose (CMC)
[2] = dose: 150.0 mg/kg/injection, schedule: Q01DX007 (ip), vehicle: carboxymethylcellulose (CMC)
[3] = dose: 200.0 mg/kg/injection, schedule: Q01DX007 (ip), vehicle: saline

CC1OC2CC(=O)OC2C2=C1C(=O)c1c(O)c3c(c(O)c1C2=O)C1CC(O)C3(O)C(C)O1 (stereo not given)
T/C (dose: 0.01 mg/kg/injection, schedule: Q01DX007 (ip), vehicle: saline): 114 % of control
T/C (dose: 0.03 mg/kg/injection, schedule: Q01DX007 (ip), vehicle: saline): 112 % of control
T/C (dose: 0.1 mg/kg/injection, schedule: Q01DX007 (ip), vehicle: saline): 112 % of control
T/C (dose: 0.2 mg/kg/injection, schedule: Q01DX007 (ip), vehicle: saline): 113 % of control
T/C (dose: 0.4 mg/kg/injection, schedule: Q01DX007 (ip), vehicle: saline): 116 % of control
T/C (dose: 0.8 mg/kg/injection, schedule: Q01DX007 (ip), vehicle: saline): 99 % of control
T/C (dose: 1.6 mg/kg/injection, schedule: Q01DX007 (ip), vehicle: saline): 94 % of control
T/C (dose: 6.4 mg/kg/injection, schedule: Q01DX007 (ip), vehicle: saline): 79 % of control
T/C (dose: 12.0 mg/kg/injection, schedule: Q01DX007 (ip), vehicle: saline): 88 % of control
T/C (dose: 12.8 mg/kg/injection, schedule: Q01DX007 (ip), vehicle: saline): 64 % of control
T/C (dose: 24.0 mg/kg/injection, schedule: Q01DX007 (ip), vehicle: saline): 61 % of control

CC(C)(S)C(N)C(=O)O (stereo not given)
T/C (dose: 500.0 mg/kg/injection, schedule: Q01DX007 (oral), vehicle: saline): 122 % of control
T/C (dose: 1000.0 mg/kg/injection, schedule: Q01DX007 (oral), vehicle: saline): 118 % of control

c1cncc(CSc2ncnc3nc[nH]c23)c1
T/C (dose: 11.1 mg/kg/injection, schedule: Q#A X014 (ip), vehicle: methylcellulose (MC)): 53 % of control
T/C (dose: 16.65 mg/kg/injection, schedule: Q#A X014 (ip), vehicle: methylcellulose (MC)): 60 % of control
T/C (dose: 25.0 mg/kg/injection, schedule: Q#A X014 (ip), vehicle: methylcellulose (MC)): 70 % of control
T/C (dose: 37.5 mg/kg/injection, schedule: Q#A X014 (ip), vehicle: methylcellulose (MC)): 47 % of control

C[C@]12C=CC(=O)C=C1CC[C@@H]1[C@@H]2CC[C@]2(C)OC(=O)CC[C@@H]12
T/C (dose: 250.0 mg/kg/injection, schedule: Q01DX007 (sc), vehicle: steriod suspending solution): 74 % of control and 99 % of control
T/C (dose: 500.0 mg/kg/injection, schedule: Q01DX007 (sc), vehicle: steriod suspending solution): 83 % of control and 105 % of control

CCOC(=O)Sc1ncnc2nc[nH]c12
T/C (dose: 1.7 mg/kg/injection, schedule: Q01DX007 (ip), vehicle: carboxymethylcellulose (CMC)): 109 % of control
T/C (dose: 3.5 mg/kg/injection, schedule: Q01DX007 (ip), vehicle: carboxymethylcellulose (CMC)): 84 % of control
T/C [1]: 102 % of control
T/C (dose: 14.0 mg/kg/injection, schedule: Q01DX007 (ip), vehicle: carboxymethylcellulose (CMC)): 41 % of control
T/C (dose: 28.0 mg/kg/injection, schedule: Q01DX007 (ip), vehicle: carboxymethylcellulose (CMC)): 46 % of control
T/C (dose: 44.0 mg/kg/injection, schedule: Q01DX007 (ip), vehicle: carboxymethylcellulose (CMC)): 56 % of control
T/C (dose: 56.0 mg/kg/injection, schedule: Q01DX007 (ip), vehicle: carboxymethylcellulose (CMC)): 30 % of control
T/C (dose: 66.0 mg/kg/injection, schedule: Q01DX007 (ip), vehicle: carboxymethylcellulose (CMC)): 61 % of control
T/C (dose: 100.0 mg/kg/injection, schedule: Q01DX007 (ip), vehicle: carboxymethylcellulose (CMC)): 35 % of control
T/C (dose: 112.0 mg/kg/injection, schedule: Q01DX007 (ip), vehicle: carboxymethylcellulose (CMC)): 22 % of control
T/C [2]: 30 % of control

NC(=O)NO
T/C (dose: 16.0 mg/kg/injection, schedule: Q01DX007 (ip), vehicle: carboxymethylcellulose (CMC)): 89 % of control
T/C (dose: 32.0 mg/kg/injection, schedule: Q01DX007 (ip), vehicle: carboxymethylcellulose (CMC)): 111 % of control
T/C (dose: 64.0 mg/kg/injection, schedule: Q01DX007 (ip), vehicle: carboxymethylcellulose (CMC)): 112 % of control
T/C (dose: 128.0 mg/kg/injection, schedule: Q01DX007 (ip), vehicle: carboxymethylcellulose (CMC)): 69 % of control

NNC(=O)c1nsnc1N
T/C (dose: 75.0 mg/kg/injection, schedule: Q01DX007 (ip), vehicle: carboxymethylcellulose (CMC)): 97 % of control

O=C(O)O.[Cd]
T/C (dose: 5.0 mg/kg/injection, schedule: Q01DX007 (ip), vehicle: carboxymethylcellulose (CMC)): 69 % of control

Nc1ncnc2nc[nH]c12
T/C (dose: 25.0 mg/kg/injection, schedule: Q01DX007 (ip), vehicle: saline): 104 % of control
T/C (dose: 50.0 mg/kg/injection, schedule: Q01DX007 (ip), vehicle: saline): 87 % of control
T/C (dose: 100.0 mg/kg/injection, schedule: Q01DX007 (ip), vehicle: saline): 119 % of control
T/C [3]: 57 % of control

Nc1nc(=S)c2ncn(C3OC(COC(=O)c4ccc([N+](=O)[O-])cc4)C(OC(=O)c4ccc([N+](=O)[O-])cc4)C3OC(=O)c3ccc([N+](=O)[O-])cc3)c2[nH]1 (stereo not given)
T/C (dose: 4.0 mg/kg/injection, schedule: Q01DX007 (ip), vehicle: carboxymethylcellulose (CMC)): 77 % of control
T/C [1]: 94 % of control
T/C (dose: 15.0 mg/kg/injection, schedule: Q01DX007 (ip), vehicle: carboxymethylcellulose (CMC)): 93 % of control and 110 % of control
T/C (dose: 23.0 mg/kg/injection, schedule: Q01DX007 (ip), vehicle: methylcellulose (MC)): 63 % of control
T/C (dose: 35.0 mg/kg/injection, schedule: Q01DX007 (ip), vehicle: carboxymethylcellulose (CMC)): 37 % of control
T/C (dose: 36.0 mg/kg/injection, schedule: Q01DX007 (ip), vehicle: carboxymethylcellulose (CMC)): 29 % of control and 32 % of control
T/C (dose: 36.0 mg/kg/injection, schedule: Q01DX007 (ip), vehicle: methylcellulose (MC)): 77 % of control
T/C (dose: 53.0 mg/kg/injection, schedule: Q01DX007 (ip), vehicle: carboxymethylcellulose (CMC)): 15 % of control and 30 % of control
T/C (dose: 53.0 mg/kg/injection, schedule: Q01DX007 (ip), vehicle: methylcellulose (MC)): 56 % of control
T/C (dose: 80.0 mg/kg/injection, schedule: Q01DX007 (ip), vehicle: carboxymethylcellulose (CMC)): 16 % of control
T/C (dose: 80.0 mg/kg/injection, schedule: Q01DX007 (ip), vehicle: methylcellulose (MC)): 62 % of control

O=S(c1ccc(Cl)cc1)c1ccc(Cl)cc1
T/C (dose: 250.0 mg/kg/injection, schedule: Q01DX007 (ip), vehicle: carboxymethylcellulose (CMC)): 105 % of control
T/C (dose: 500.0 mg/kg/injection, schedule: Q01DX007 (ip), vehicle: carboxymethylcellulose (CMC)): 96 % of control

CNC=O
T/C (dose: 19.87 mg/kg/injection, schedule: Q#A X014 (ip), vehicle: carboxymethylcellulose (CMC)): 107 % of control
T/C (dose: 39.75 mg/kg/injection, schedule: Q#A X014 (ip), vehicle: carboxymethylcellulose (CMC)): 67 % of control
T/C (dose: 79.5 mg/kg/injection, schedule: Q#A X014 (ip), vehicle: carboxymethylcellulose (CMC)): 23 % of control
T/C (dose: 100.0 mg/kg/injection, schedule: Q#A X014 (ip), vehicle: saline): 20 % of control
T/C (dose: 120.0 mg/kg/injection, schedule: Q01DX007 (ip), vehicle: carboxymethylcellulose (CMC)): 19 % of control
T/C (dose: 125.0 mg/kg/injection, schedule: Q01DX007 (ip), vehicle: saline): 8 % of control and 12 % of control
T/C [2]: 16 % of control
T/C (dose: 150.0 mg/kg/injection, schedule: Q01DX007 (ip), vehicle: saline): 4 % of control and 7 % of control
T/C (dose: 159.0 mg/kg/injection, schedule: Q#A X014 (ip), vehicle: carboxymethylcellulose (CMC)): 8 % of control
T/C (dose: 175.0 mg/kg/injection, schedule: Q01DX007 (ip), vehicle: saline): 1 % of control and 5 % of control
T/C (dose: 200.0 mg/kg/injection, schedule: Q01DX007 (ip), vehicle: carboxymethylcellulose (CMC)): 9 % of control
T/C [3]: 2 % of control and 3 % of control and 26 % of control
T/C (dose: 225.0 mg/kg/injection, schedule: Q01DX007 (ip), vehicle: saline): 1 % of control and 3 % of control
T/C (dose: 250.0 mg/kg/injection, schedule: Q01DX007 (ip), vehicle: saline): 1 % of control and 2 % of control
T/C (dose: 275.0 mg/kg/injection, schedule: Q01DX007 (ip), vehicle: saline): 1 % of control
T/C (dose: 325.0 mg/kg/injection, schedule: Q01DX007 (ip), vehicle: saline): 1 % of control
T/C (dose: 400.0 mg/kg/injection, schedule: Q01DX007 (ip), vehicle: saline): 24 % of control

Clc1ccc2c(c1)C(Br)c1cc(Cl)cc(Cl)c1-2 (stereo not given)
T/C (dose: 222.0 mg/kg/injection, schedule: Q01DX007 (ip), vehicle: other): 66 % of control
T/C (dose: 222.0 mg/kg/injection, schedule: Q01DX007 (ip), vehicle: saline): 67 % of control
T/C (dose: 333.0 mg/kg/injection, schedule: Q01DX007 (ip), vehicle: other): 27 % of control
T/C (dose: 333.0 mg/kg/injection, schedule: Q01DX007 (ip), vehicle: saline): 32 % of control
T/C (dose: 500.0 mg/kg/injection, schedule: Q01DX007 (ip), vehicle: other): 30 % of control
T/C (dose: 750.0 mg/kg/injection, schedule: Q01DX007 (ip), vehicle: other): 21 % of control

CC(=O)C(CCC(=O)O)(CCC(=O)O)c1ccccc1
T/C (dose: 15.0 mg/kg/injection, schedule: Q#A X014 (ip), vehicle: other): 83 % of control
T/C (dose: 30.0 mg/kg/injection, schedule: Q#A X014 (ip), vehicle: other): 106 % of control
T/C (dose: 60.0 mg/kg/injection, schedule: Q#A X014 (ip), vehicle: other): 98 % of control
T/C (dose: 120.0 mg/kg/injection, schedule: Q#A X014 (ip), vehicle: other): 112 % of control
